In US8952024B2, “Herbicidal pyrimidone derivatives” (E I du Pont de Nemours and Company, priority 2009, dated 2015):

Experiments:
Experiment in all cases: Test B pre-/postemergence plant response
Format in all cases: in vivo
[1] = test system: corn (Zea mays); settings: for Corn plant response rating (0 to 100 scale): 62 g ai/ha, 0 is no effect, 13 to 15 days
In short: (§1)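 Steps: sow seed in loam–sand soil and spray preemergence, or grow plants in peat-based medium to 1–4 leaves (2–18 cm) and spray postemergence; formulation is non-phytotoxic solvent plus surfactant; hold in greenhouse 13–15 days; score visually vs controls, 0 = no effect, 100 = complete control.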

[2] = test system: goosegrass (Eleusine indica); settings: for Goosegrass plant response rating (0 to 100 scale): 62 g ai/ha, 0 is no effect, 13 to 15 days
In short: as §1

[3] = test system: kochia (Kochia scoparia); settings: for Kochia plant response rating (0 to 100 scale): 62 g ai/ha, 0 is no effect, 13 to 15 days
In short: as §1

[4] = test system: soybean (Glycine max); settings: for Soybean plant response rating (0 to 100 scale): 62 g ai/ha, 0 is no effect, 13 to 15 days
In short: as §1

[5] = test system: morningglory (Ipomoea coccinea); settings: for Morningglory plant response rating (0 to 100 scale): 62 g ai/ha, 0 is no effect, 13 to 15 days
In short: as §1

[6] = test system: cocklebur (Xanthium strumarium); settings: for Cocklebur plant response rating (0 to 100 scale): 62 g ai/ha, 0 is no effect, 13 to 15 days
In short: as §1

[7] = test system: johnsongrass (Sorghum halepense); settings: for Johnsongrass plant response rating (0 to 100 scale): 62 g ai/ha, 0 is no effect, 13 to 15 days
In short: as §1

[8] = test system: velvetleaf (Abutilon theophrasti); settings: for Velvetleaf plant response rating (0 to 100 scale): 62 g ai/ha, 0 is no effect, 13 to 15 days
In short: as §1

[9] = test system: large crabgrass (Digitaria sanguinalis); settings: for Crabgrass, Large plant response rating (0 to 100 scale): 62 g ai/ha, 0 is no effect, 13 to 15 days
In short: as §1

[10] = test system: Italian ryegrass (Lolium multiflorum); settings: for Ryegrass, Italian plant response rating (0 to 100 scale): 62 g ai/ha, 0 is no effect, 13 to 15 days
In short: as §1

[11] = test system: giant foxtail (Setaria faberii); settings: for Foxtail, Giant plant response rating (0 to 100 scale): 62 g ai/ha, 0 is no effect, 13 to 15 days
In short: as §1

[12] = test system: blackgrass (Alopecurus myosuroides); settings: for Blackgrass plant response rating (0 to 100 scale): 62 g ai/ha, 0 is no effect, 13 to 15 days
In short: as §1

[13] = test system: ragweed (common ragweed, Ambrosia elatior); settings: for Ragweed plant response rating (0 to 100 scale): 62 g ai/ha, 0 is no effect, 13 to 15 days
In short: as §1

[14] = test system: green foxtail (Setaria viridis); settings: for Foxtail, Green plant response rating (0 to 100 scale): 62 g ai/ha, 0 is no effect, 13 to 15 days
In short: as §1

[15] = 31 g ai/ha, postemergence, scale 0 to 100, 0 is no effect, 100 is complete control
[16] = postemergence, 100 is complete control
[17] = Postemergence, 125 g ai/ha, visual rating after 13 to 15 days, scale 0 (no effect) to 100 (complete control)
[18] = Postemergence, 250 g ai/ha, scale 0 to 100 (0 no effect, 100 complete control)

CCCCCn1c(-c2ccccc2)ncc(C(=O)C2=C(O)CCCC2=O)c1=O [Compound 89]
Plant response rating, Corn [1, 15]: 80 | Corn plant response rating (0 to 100 scale) [1, 16]: 95 | Plant response rating, Corn [1, 17]: 98 | Plant response rating, Corn [1, 18]: 98 | Plant response rating, Goosegrass [2, 15]: 55 | Goosegrass plant response rating (0 to 100 scale) [2, 16]: 65 | Plant response rating, Goosegrass [2, 18]: 80 | Plant response rating, Kochia [3, 15]: 65 | Kochia plant response rating (0 to 100 scale) [3, 16]: 75 | Plant response rating, Kochia [3, 18]: 100 | Plant response rating, Soybean [4, 15]: 90 | Soybean plant response rating (0 to 100 scale) [4, 16]: 90 | Plant response rating, Soybean [4, 18]: 98 | Plant response rating, Morningglory [5, 15]: 70 | Morningglory plant response rating (0 to 100 scale) [5, 16]: 85 | Plant response rating, Morningglory [5, 18]: 100 | Plant response rating, Cocklebur [6, 15]: 10 | Cocklebur plant response rating (0 to 100 scale) [6, 16]: 60 | Plant response rating, Cocklebur [6, 17]: 65 | Plant response rating, Cocklebur [6, 18]: 70 | Plant response rating, Johnsongrass [7, 15]: 25 | Johnsongrass plant response rating (0 to 100 scale) [7, 16]: 90 | Plant response rating, Johnsongrass [7, 18]: 100 | Plant response rating, Velvetleaf [8, 15]: 90 | Velvetleaf plant response rating (0 to 100 scale) [8, 16]: 95 | Plant response rating, Velvetleaf [8, 18]: 100 | Plant response rating, Crabgrass, Large [9, 15]: 85 | Crabgrass, Large plant response rating (0 to 100 scale) [9, 16]: 95 | Plant response rating, Crabgrass, Large [9, 17]: 95 | Plant response rating, Crabgrass, Large [9, 18]: 98 | Plant response rating, Ryegrass, Italian [10, 15]: 0 | Ryegrass, Italian plant response rating (0 to 100 scale) [10, 16]: 5 | Plant response rating, Ryegrass, Italian [10, 18]: 30 | Plant response rating, Foxtail, Giant [11, 15]: 70 | Foxtail, Giant plant response rating (0 to 100 scale) [11, 16]: 85 | Plant response rating, Foxtail, Giant [11, 18]: 98 | Plant response rating, Blackgrass [12, 15]: 10 | Blackgrass plant response rating (0 to 100 scale) [12, 16]: 15 | Plant response rating, Blackgrass [12, 17]: 20 | Plant response rating, Blackgrass [12, 18]: 30 | Plant response rating, Ragweed [13, 15]: 70 | Ragweed plant response rating (0 to 100 scale) [13, 16]: 85 | Plant response rating, Ragweed [13, 18]: 100 | Plant response rating, Foxtail, Green [14, 15]: 60 | Foxtail, Green plant response rating (0 to 100 scale) [14, 16]: 70 | Plant response rating, Foxtail, Green [14, 18]: 80

CC(C)n1c(-c2ccccc2)ncc(C(=O)C2=C(O)CCCC2=O)c1=O [Compound 95]
Plant response rating, Corn [1, 15]: 0 | Corn plant response rating (0 to 100 scale) [1, 16]: 0 | Plant response rating, Corn [1, 17]: 25 | Plant response rating, Corn [1, 18]: 35 | Plant response rating, Goosegrass [2, 15]: 65 | Goosegrass plant response rating (0 to 100 scale) [2, 16]: 75 | Plant response rating, Goosegrass [2, 18]: 90 | Plant response rating, Kochia [3, 15]: 80 | Kochia plant response rating (0 to 100 scale) [3, 16]: 100 | Plant response rating, Kochia [3, 18]: 100 | Plant response rating, Soybean [4, 15]: 95 | Soybean plant response rating (0 to 100 scale) [4, 16]: 98 | Plant response rating, Soybean [4, 18]: 98 | Plant response rating, Morningglory [5, 15]: 100 | Morningglory plant response rating (0 to 100 scale) [5, 16]: 100 | Plant response rating, Morningglory [5, 18]: 100 | Plant response rating, Cocklebur [6, 15]: 70 | Cocklebur plant response rating (0 to 100 scale) [6, 16]: 95 | Plant response rating, Cocklebur [6, 17]: 100 | Plant response rating, Cocklebur [6, 18]: 100 | Plant response rating, Johnsongrass [7, 15]: 5 | Johnsongrass plant response rating (0 to 100 scale) [7, 16]: 10 | Plant response rating, Johnsongrass [7, 18]: 45 | Plant response rating, Velvetleaf [8, 15]: 85 | Velvetleaf plant response rating (0 to 100 scale) [8, 16]: 95 | Plant response rating, Velvetleaf [8, 18]: 100 | Plant response rating, Crabgrass, Large [9, 15]: 45 | Crabgrass, Large plant response rating (0 to 100 scale) [9, 16]: 65 | Plant response rating, Crabgrass, Large [9, 17]: 75 | Plant response rating, Crabgrass, Large [9, 18]: 80 | Plant response rating, Ryegrass, Italian [10, 15]: 0 | Ryegrass, Italian plant response rating (0 to 100 scale) [10, 16]: 0 | Plant response rating, Ryegrass, Italian [10, 18]: 0 | Plant response rating, Foxtail, Giant [11, 15]: 45 | Foxtail, Giant plant response rating (0 to 100 scale) [11, 16]: 65 | Plant response rating, Foxtail, Giant [11, 18]: 85 | Plant response rating, Blackgrass [12, 15]: 0 | Blackgrass plant response rating (0 to 100 scale) [12, 16]: 0 | Plant response rating, Blackgrass [12, 17]: 0 | Plant response rating, Blackgrass [12, 18]: 5 | Plant response rating, Ragweed [13, 15]: 75 | Ragweed plant response rating (0 to 100 scale) [13, 16]: 80 | Plant response rating, Ragweed [13, 18]: 95 | Plant response rating, Foxtail, Green [14, 15]: 20 | Foxtail, Green plant response rating (0 to 100 scale) [14, 16]: 50 | Plant response rating, Foxtail, Green [14, 18]: 90
